# Reference: patent EP3187180A1, “ADENOSYLHOMOCYSTEINASE BINDING SUBSTANCES FOR MEDICAL USE” (Ludwig-Maximilians-Universität München, priority 2015, dated 2017)
# Numbering of substitutions follows the chain as printed. Read-outs that look alike come from different tables or passages of the source.
# What was measured:
# [1] = molecular target: T1, AHCY R49C (Homo sapiens, UniProt P23526, R49C); assay: Differential Scanning Fluorimetry (DSF), thermal unfolding; assay type: binding; conditions: for TM = Temperature at the midpoint of protein unfolding transition: No NAD^+: 49,84
# T1 construct: made in house; host or cells: E. coli DH5a (with or without GroESL co-expression)
# T1 sequence (P23526 1-432 R49C): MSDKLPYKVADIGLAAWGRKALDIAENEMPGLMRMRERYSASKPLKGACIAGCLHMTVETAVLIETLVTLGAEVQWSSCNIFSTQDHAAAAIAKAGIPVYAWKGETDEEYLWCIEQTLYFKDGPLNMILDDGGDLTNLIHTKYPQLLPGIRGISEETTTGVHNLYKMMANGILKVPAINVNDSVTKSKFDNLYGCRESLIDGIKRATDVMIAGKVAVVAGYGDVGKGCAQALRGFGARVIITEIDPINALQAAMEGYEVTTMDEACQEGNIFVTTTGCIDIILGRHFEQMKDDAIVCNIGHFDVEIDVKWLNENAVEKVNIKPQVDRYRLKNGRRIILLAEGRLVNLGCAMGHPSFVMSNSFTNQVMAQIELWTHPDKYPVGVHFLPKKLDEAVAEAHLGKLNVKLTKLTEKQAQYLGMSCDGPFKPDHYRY
# Description: (§1) The potential of the binding of NAD^+ or an analogue of NAD^+ to the NAD^+ binding site and of the binding of an analogue of a substrate of AHCY to the substrate binding site of AHCY in stabilizing the enzyme and its activity was analyzed by use of Differential Scanning Fluorimetry (DSF). The following substrates were tested in the given concentrations:
# (§2) The following five mutant proteins were selected for testing: • R49C, D86G, Y143C, A89V and Y379C.
# (§3) Fluorescence measurements were carried out on a 7900 HT fast real-time PCR System (Applied Biosystems, Thermo Fisher Scientific Inc. USA). The data was recorded in Abi Prism SDS software. Samples contained AHCY-Maltose-Binding Protein fusion proteins, HEPES, and SYPRO Orange fluorescence dye (SYPRO® Orange Protein Gel Stain from Invitrogen, Thermo Fisher Scientific Inc. USA) in a 1:1000 dilution), which binds to exposed hydrophobic sites of unfolded proteins. For this dye, the wavelengths used for excitation and emission are 492 nm, respectively 610 nm. The assay was measured in quadruplicates on a 96-well PCR plate. Thermal denaturation was monitored by following the changes in SYPRO Orange fluorescence emission (excitation at 492 nm, emission at 610 nm). The measurement was performed in a 25 °C to 75 °C range, at a rate of 2 °C/min. Thermal denaturation curves were obtained by the plotting of fluorescence intensities against temperature and TM values as the midpoint of the protein-unfolding transition were calculated using the Boltzmann sigmoidal non-linear regression function in GraphPad Prism (GraphPad Prism 5.0, GraphPad Software Inc. USA). All measurements were corrected for background reduction of SYPRO Orange fluorescence. To analyze the stabilizing effect of different compounds different concentrations of NAD^+, NAD^+ analogues and substrate analogues were added to the samples. Significances between wild-type and mutated apoenzymes and holoenzymes with stabilizing agents were calculated by one-way analysis of variance followed by Dunnett's post test (GraphPad Prism 5.0, GraphPad Software Inc. USA).
# (§4) DSF is an excellent means to monitor global thermal unfolding events by probing the accessibility of the fluorescent dye Sypro Orange to hydrophobic groups within a protein. DSF was used in order to assess whether mutated AHCY proteins can be stabilized by various compounds at increasing temperatures. The stabilizing effect was evaluated by comparison of the unfolding transition midpoints (fraction unfolded = 0.5) as an operative measure of protein stability and by graphical analysis of the thermal denaturation curves. The midpoint of thermal unfolding of wild-type AHCY was shifted by an average of 2.27 °C towards higher temperatures by NAD^+ and NAD^+ analogues.
# [2] = test system: AHCY wild-type and mutated AHCY proteins; assay: Differential Scanning Fluorimetry (DSF), statements over the panel of proteins; assay type: binding, human; conditions: wild-type and/or mutated AHCY proteins, 1-100 µM or 5-100 µM
# [3] = molecular target: T2, AHCY D86G (Homo sapiens, UniProt P23526, D86G); assay: Differential Scanning Fluorimetry (DSF), thermal unfolding; assay type: binding; conditions: for ΔTm at 100 µM: read-out: ΔTM (midpoint of thermal unfolding shifted by); for TM = Temperature at the midpoint of protein unfolding transition: No NAD^+: 49,55
# T2 construct: made in house; host or cells: E. coli DH5a (with or without GroESL co-expression)
# T2 sequence (P23526 1-432 D86G): T1 sequence (P23526 1-432 R49C) with C49R, D86G
# Description: as §1, §2, §3, §4
# [4] = molecular target: T3, AHCY A89V (Homo sapiens, UniProt P23526, A89V); assay: as above; assay type: binding; conditions: for TM = Temperature at the midpoint of protein unfolding transition: No NAD^+: 50,29
# T3 construct: made in house; host or cells: E. coli DH5a (with or without GroESL co-expression)
# T3 sequence (P23526 1-432 A89V): T1 sequence (P23526 1-432 R49C) with C49R, A89V
# Description: as §1, §2, §3, §4
# [5] = molecular target: T4, wild-type AHCY (Homo sapiens, UniProt P23526); assay: as above; assay type: binding; conditions: for TM = Temperature at the midpoint of protein unfolding transition: Wt, No NAD^+: 51,98
# T4 construct: made in house; host or cells: E. coli DH5a (with or without GroESL co-expression)
# Description: as §1, §3, §4
# [6] = molecular target: T5, AHCY Y143C (Homo sapiens, UniProt P23526, Y143C); assay: as above; assay type: binding; conditions: No NAD^+: 49,34
# T5 construct: made in house; host or cells: E. coli DH5a (with or without GroESL co-expression)
# T5 sequence (P23526 1-432 Y143C): T1 sequence (P23526 1-432 R49C) with C49R, Y143C
# Description: as §1, §2, §3, §4
# [7] = molecular target: T6, AHCY Y379C (Homo sapiens, UniProt P23526, Y379C); assay: as above; assay type: binding; conditions: No NAD^+: 50,01
# T6 construct: made in house; host or cells: E. coli DH5a (with or without GroESL co-expression)
# T6 sequence (P23526 1-432 Y379C): T1 sequence (P23526 1-432 R49C) with C49R, Y379C
# Description: as §1, §2, §3, §4
# T4 sequence (P23526 whole entry): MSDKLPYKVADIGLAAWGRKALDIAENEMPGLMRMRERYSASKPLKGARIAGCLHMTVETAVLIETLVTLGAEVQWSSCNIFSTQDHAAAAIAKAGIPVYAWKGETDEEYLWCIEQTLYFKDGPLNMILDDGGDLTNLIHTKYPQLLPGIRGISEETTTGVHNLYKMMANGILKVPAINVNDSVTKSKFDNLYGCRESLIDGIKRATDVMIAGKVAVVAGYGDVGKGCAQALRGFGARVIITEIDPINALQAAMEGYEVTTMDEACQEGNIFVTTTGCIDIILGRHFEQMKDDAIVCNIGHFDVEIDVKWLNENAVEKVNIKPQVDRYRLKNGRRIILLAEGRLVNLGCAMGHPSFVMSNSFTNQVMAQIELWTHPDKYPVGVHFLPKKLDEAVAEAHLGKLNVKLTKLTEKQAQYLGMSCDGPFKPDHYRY
compound,measurement,setting,value
"NC(=O)c1ccc[n+]([C@@H]2O[C@H](COP(=O)([O-])OP(=O)(O)OC[C@H]3O[C@@H](n4cnc5c4ncn4ccnc54)[C@H](O)[C@@H]3O)[C@@H](O)[C@H]2O)c1 [E-NAD^+, nicotinamide 1,N^6-ethenoadenine dinucleotide]",ΔTM (increase in TM),[1]; concentration not given,4.36 °C
same,stabilizing effect on thermal stability (in words),[2],considerable stabilization
"NC(=O)c1ncn([C@@H]2O[C@H](CO)[C@@H](O)[C@H]2O)n1 [ribavirin, 1-[(2R,3R,4S,5R)-3,4-dihydroxy-5-(hydroxymethyl)oxolan-2-yl]-1H-1,2,4-triazole-3-carboxamide]",stabilizing effect on thermal stability (in words),[2],good stabilizing effect
"NC(=S)c1ccc[n+]([C@@H]2O[C@H](COP(=O)([O-])OP(=O)(O)OC[C@H]3O[C@@H](n4cnc5c(N)ncnc54)[C@H](O)[C@@H]3O)[C@@H](O)[C@H]2O)c1 [S-NAD^+, thionicotinamide adenine dinucleotide]",ΔTm at 100 µM,"[3]; D86G, 100 µM",6.7 °C
same,stabilizing effect on thermal stability (in words),[2],improved resistance against thermal stress
C=C1CCC[C@H]2[C@](C)(CC3=C(O)C(=O)C=C(OC)C3=O)[C@@H](C)CC[C@]12C [ilimaquinone],shifting the midpoint of thermal unfolding by,[4]; concentration not given,8.9 °C
"NC(=O)c1ccc[n+]([C@@H]2O[C@H](COP(=O)([O-])OP(=O)(O)OC[C@H]3O[C@@H](n4cnc5c(N)ncnc54)[C@H](O)[C@@H]3O)[C@@H](O)[C@H]2O)c1 [NAD^+, nicotinamide adenine dinucleotide]",ΔTm at 100 µM,"[5]; AHCY wild-type, 100 µM, read-out: stabilized the unfolding transition by (shift of TM)",2.34 °C
same,TM = Temperature at the midpoint of protein unfolding transition,[5]; 5 µM,"52,24"
same,TM = Temperature at the midpoint of protein unfolding transition,[5]; 11 µM,"53,99"
same,TM = Temperature at the midpoint of protein unfolding transition,[5]; 100 µM,"54,32"
same,TM = Temperature at the midpoint of protein unfolding transition,[4]; 5 µM,"51,97"
same,TM = Temperature at the midpoint of protein unfolding transition,[4]; 11 µM,"53,52"
same,TM = Temperature at the midpoint of protein unfolding transition,[4]; 100 µM,"54,59"
same,TM = Temperature at the midpoint of protein unfolding transition,"[3]; D86G, 5 µM","51,88"
same,TM = Temperature at the midpoint of protein unfolding transition,"[3]; D86G, 11 µM","53,51"
same,TM = Temperature at the midpoint of protein unfolding transition,"[3]; D86G, 100 µM","54,02"
same,ΔTm at 100 µM,[3],4.47 °C
same,TM = Temperature at the midpoint of protein unfolding transition,[1]; 5 µM,"51,48"
same,TM = Temperature at the midpoint of protein unfolding transition,[1]; 11 µM,"52,55"
same,TM = Temperature at the midpoint of protein unfolding transition,[1]; 100 µM,"52,75"
same,TM = Temperature at the midpoint of protein unfolding transition,[6]; 5 µM,"50,62"
same,TM = Temperature at the midpoint of protein unfolding transition,[6]; 11 µM,"52,36"
same,TM = Temperature at the midpoint of protein unfolding transition,[6]; 100 µM,"52,17"
same,TM = Temperature at the midpoint of protein unfolding transition,[7]; 5 µM,"51,31"
same,TM = Temperature at the midpoint of protein unfolding transition,[7]; 11 µM,"52,45"
same,TM = Temperature at the midpoint of protein unfolding transition,[7]; 100 µM,"52,48"
same,stabilizing effect on thermal stability (in words),[2],very good effects
"Nc1nccc2c1ncn2[C@@H]1C=C(CO)[C@@H](O)[C@H]1O [DZNep, 3-Deazaneplanocin A]",increase in TM (stabilizing the unfolding by),"[3]; D86G, concentration not given",11.18 °C
same,ΔTm at 10 µM,[3]; read-out: ΔTM,13.5 °C
